The subject of one assay is Streptococcus mutans. As to the kind of experiment: Antibacterial activity against Streptococcus mutans PTCC 1601. Type of assay: functional.
Assay [1] has as its system Escherichia coli. As to the kind of experiment: Antimicrobial activity against Escherichia coli ATCC 25922. Type of assay: functional.
For assay [2], the system named is Bacillus subtilis. As to the kind of experiment: Antibacterial activity against Bacillus subtilis ATCC 465. In kind it is functional.
Assay [3] has as its system Staphylococcus aureus. As to the kind of experiment: Antibacterial activity against Staphylococcus aureus ATCC 25923. Type of assay: functional.
A further assay deals with Klebsiella pneumoniae. As to the kind of experiment: Antibacterial activity against Klebsiella pneumoniae ATCC 29655. In kind it is functional.
The test system of assay [4] is Pseudomonas aeruginosa. As to the kind of experiment: Antibacterial activity against Pseudomonas aeruginosa ATCC 85327. Type of assay: functional.
The test system of the next assay is Micrococcus luteus. As to the kind of experiment: Antibacterial activity against Micrococcus luteus PTCC 1110. In kind it is functional.
A further assay relates to Enterococcus faecalis. As to the kind of experiment: Antibacterial activity against Enterococcus faecalis ATCC 29737. Type of assay: functional.
The next assay concerns Bacillus pumilus. In words: Antibacterial activity against Bacillus pumilus PTCC 1114. Type of assay: functional.
Assay [5] deals with Staphylococcus epidermidis. As to the kind of experiment: Antibacterial activity against Staphylococcus epidermidis ATCC 12228. In kind it is functional.
Assay [6] has as its system Staphylococcus aureus. As to the kind of experiment: microbe, parasite or virus in culture.
Assay [7] concerns Bacillus subtilis. In words: Antibacterial activity against Bacillus subtilis. Type of assay: functional.
The subject of assay [8] is HeLa. As to the kind of experiment: Antiproliferative activity against human HeLa cells. In kind it is functional, cell-based.
Another assay concerns MDA-MB-231. In words: cells. In kind it is functional, cell-based. The conditions noted are these: Homo sapiens.
The subject of the next assay is Proteus vulgaris. As to the kind of experiment: Antibacterial activity against Proteus vulgaris NCIM 2813 by microdilution broth method. In kind it is functional. Background: Dilution methods test growth across graded concentrations, often in twofold steps.
Assay [9] concerns Pseudomonas aeruginosa. In words: Antibacterial activity against Pseudomonas aeruginosa NCIM 5029 by microdilution broth method. Type of assay: functional.
For assay [10], the system named is Escherichia coli. As to the kind of experiment: Antibacterial activity against Escherichia coli NCIM 2931 by microdilution broth method. In kind it is functional.
In assay [11] the test system is Staphylococcus aureus. In words: Antibacterial activity against Staphylococcus aureus NCIM5021 by microdilution broth method. Type of assay: functional.
The next assay deals with Salmonella sp. In words: Antibacterial activity against Salmonella sp. NCIM 2501 by microdilution broth method. In kind it is functional.
The test system of assay [12] is Staphylococcus aureus. As to the kind of experiment: Antibacterial activity against Staphylococcus aureus assessed as zone of inhibition. Type of assay: functional.
The subject of assay [13] is Escherichia coli. In words: Antibacterial activity against Escherichia coli assessed as zone of inhibition. In kind it is functional.
Assay [14] has as its system Candida albicans. As to the kind of experiment: Antifungal activity against Candida albicans. In kind it is functional.
The subject of the next assay is Candida tropicalis. In words: Antifungal activity against Candida tropicalis. In kind it is functional.
In the next assay the test system is Nakaseomyces glabratus. As to the kind of experiment: Antifungal activity against Candida glabrata. In kind it is functional.
In a further assay the test system is A549. As to the kind of experiment: Cytotoxicity against human A549 cells incubated for 48 hrs by MTT assay. In kind it is functional, cell-based. The conditions noted are these: A549, 48 h. A general note: Tetrazolium dyes change colour on reduction, which living cells bring about.
Assay [15] deals with HeLa. As to the kind of experiment: Cytotoxicity against human HeLa cells incubated for 48 hrs by MTT assay. Type of assay: functional, cell-based.
In the next assay the test system is MCF7. As to the kind of experiment: Cytotoxicity against human MCF7 cells incubated for 48 hrs by MTT assay. Type of assay: functional, cell-based. The conditions noted are these: MCF7, 48 h.
The test system of another assay is DU-145. As to the kind of experiment: Cytotoxicity against human DU-145 cells incubated for 48 hrs by MTT assay. In kind it is functional, cell-based. The conditions noted are these: DU-145, 48 h.
A further assay has as its target Cholinesterase (Homo sapiens, UniProt P06276). As to the kind of experiment: Inhibition of BChE (unknown origin).
The target of the next assay is Acetylcholinesterase (Homo sapiens, UniProt P22303). As to the kind of experiment: Inhibition of AChE (unknown origin).
The subject of another assay is Geotrichum candidum. As to the kind of experiment: Antifungal activity against Geotrichum candidum RCMB 05097 assessed as zone of inhibition. In kind it is functional.
In the next assay the test system is Aspergillus fumigatus. In words: Antifungal activity against Aspergillus fumigatus RCMB 02568 assessed as zone of inhibition. In kind it is functional.
The test system of assay [16] is Candida albicans. In words: Antifungal activity against Candida albicans RCMB 05036 assessed as zone of inhibition. Type of assay: functional.
Assay [17] deals with Syncephalastrum racemosum. In words: Antifungal activity against Syncephalastrum racemosum RCMB 05922 assessed as zone of inhibition. In kind it is functional.
Assay [18] has as its system Aspergillus niger. In words: Antifungal activity against Aspergillus niger assessed as zone of inhibition at 25 ug/ml. The conditions noted are these: read-out: DIZ. Type of assay: functional.
Another assay concerns Candida metapsilosis. In words: Antifungal activity against Candida metapsilosis assessed as zone of inhibition at 25 ug/ml. The conditions noted are these: Lodderomyces metapsilosis, read-out: DIZ. Type of assay: functional.
Assay [19] relates to Aspergillus niger. In words: Antifungal activity against Aspergillus niger. In kind it is functional.
A further assay deals with Aspergillus flavus. In words: Antifungal activity against Aspergillus flavus. In kind it is functional.
Assay [20] deals with Pseudomonas aeruginosa. In words: Antibacterial activity against multidrug resistant Pseudomonas aeruginosa 025. Type of assay: functional.
In assay [21] the test system is Pseudomonas aeruginosa. In words: Antibacterial activity against multidrug resistant Pseudomonas aeruginosa 034. Type of assay: functional.

Structures are written as SMILES. In brackets after ≈: the same amount, converted by molar mass.

Broadly, the IC50 is the point on the concentration scale where inhibition reaches its midpoint.

Acetylcholinesterase, sequence (P22303 whole entry): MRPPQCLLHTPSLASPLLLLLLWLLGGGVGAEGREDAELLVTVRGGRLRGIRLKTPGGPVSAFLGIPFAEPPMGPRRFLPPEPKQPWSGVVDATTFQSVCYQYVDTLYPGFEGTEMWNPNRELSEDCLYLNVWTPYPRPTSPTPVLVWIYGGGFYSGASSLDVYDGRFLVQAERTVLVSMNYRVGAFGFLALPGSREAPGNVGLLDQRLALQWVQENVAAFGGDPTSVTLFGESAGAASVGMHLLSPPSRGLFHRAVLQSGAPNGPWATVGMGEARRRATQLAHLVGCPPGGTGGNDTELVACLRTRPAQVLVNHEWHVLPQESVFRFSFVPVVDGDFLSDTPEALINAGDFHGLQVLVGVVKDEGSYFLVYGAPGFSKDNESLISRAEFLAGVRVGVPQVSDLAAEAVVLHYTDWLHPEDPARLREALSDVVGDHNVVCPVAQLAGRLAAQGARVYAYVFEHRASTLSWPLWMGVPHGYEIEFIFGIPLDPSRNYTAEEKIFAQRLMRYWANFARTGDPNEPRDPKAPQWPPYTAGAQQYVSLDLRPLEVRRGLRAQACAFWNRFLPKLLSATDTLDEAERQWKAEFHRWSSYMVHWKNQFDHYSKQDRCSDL
Cholinesterase, sequence (P06276 whole entry): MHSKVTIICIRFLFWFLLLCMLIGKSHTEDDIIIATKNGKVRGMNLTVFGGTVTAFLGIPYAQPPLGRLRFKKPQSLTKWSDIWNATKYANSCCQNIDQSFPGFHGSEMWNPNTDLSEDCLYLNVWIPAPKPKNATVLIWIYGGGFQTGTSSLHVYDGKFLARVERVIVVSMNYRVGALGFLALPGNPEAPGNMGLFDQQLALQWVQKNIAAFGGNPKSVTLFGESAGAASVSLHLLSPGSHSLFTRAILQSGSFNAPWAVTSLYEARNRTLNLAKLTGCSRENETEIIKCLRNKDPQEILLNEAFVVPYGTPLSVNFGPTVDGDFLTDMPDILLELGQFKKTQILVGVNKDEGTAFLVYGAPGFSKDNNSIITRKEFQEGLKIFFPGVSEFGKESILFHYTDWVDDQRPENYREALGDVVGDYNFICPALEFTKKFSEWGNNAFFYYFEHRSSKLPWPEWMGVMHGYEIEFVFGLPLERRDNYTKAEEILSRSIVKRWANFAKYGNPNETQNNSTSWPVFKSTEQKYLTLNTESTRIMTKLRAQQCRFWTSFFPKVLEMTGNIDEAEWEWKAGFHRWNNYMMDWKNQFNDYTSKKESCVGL
Description for MDA-MB-231: Antiproliferative activity against human MDA-MB-231 cells

Consider `O=C1c2c(Cl)cccc2NC2(C(=O)Nc3ccc(Br)cc32)N1Nc1ccccc1` (centres undefined), for which the MIC against Streptococcus mutans was below 2 µg/mL; in the assay on Escherichia coli [1], below 2 µg/mL; against Bacillus subtilis [2] it was 4 µg/mL (≈ 8.52 µM); against Staphylococcus aureus [3], 2 µg/mL (≈ 4.26 µM); in the assay on Klebsiella pneumoniae it was 4 µg/mL (≈ 8.52 µM); against Pseudomonas aeruginosa [4], 8 µg/mL (≈ 17 µM). For the same compound, the MIC is 4 µg/mL (≈ 8.52 µM) in the assay on Micrococcus luteus, below 2 µg/mL against Enterococcus faecalis, below 2 µg/mL against Bacillus pumilus and 2 µg/mL (≈ 4.26 µM) in assay [5].

Take `Cc1nn(-c2ccccc2)c2c1C1(C(=O)Nc3ccc(Br)cc31)c1c(C)nn(-c3ccccc3)c1O2`: the MIC stood at 64 µg/mL (≈ 119 µM) with Staphylococcus aureus [6] and 256 µg/mL (≈ 475 µM) in the assay with Bacillus subtilis [7].

Take `CC(=O)O[C@H]1C(=O)[C@@]2(C)[C@H]([C@H](OC(=O)c3ccccc3)[C@]3(O)C[C@H](OC(=O)[C@H](O)[C@@H](NC(=O)c4ccccc4)c4ccccc4)C(C)=C1C3(C)C)[C@]1(OC(C)=O)CO[C@@H]1C[C@@H]2O` [PACLITAXEL]: the IC50 with HeLa [8] is 6 nM; with MDA-MB-231 it was 100 nM.

Turning to `O=C1Nc2ccccc2[C@@]1(O)[C@@]1(OCc2ccc(Br)cc2)C(=O)Nc2ccccc21`, the MIC was determined as 0.067 µg/mL (≈ 0.144 µM) against Proteus vulgaris; 0.067 µg/mL (≈ 0.144 µM) against Pseudomonas aeruginosa [9]; 0.034 µg/mL (≈ 0.0731 µM) in the assay with Escherichia coli [10]; 0.067 µg/mL (≈ 0.144 µM) against Staphylococcus aureus [11]; 0.034 µg/mL (≈ 0.0731 µM) with Salmonella sp..

As to `CCC(C)Cn1cc(CN2C(=O)C3(C(C#N)=C(N)Oc4c3ccc3[nH]c5ccccc5c43)c3ccccc32)nn1` (centres undefined), the IC50 with HeLa [8] was found to be 14900 nM; in the assay with MDA-MB-231, 3800 nM.

With `CCOC1=Nc2ccc(Br)cc2/C1=C\C(=O)c1ccccc1`, the “diameter of the inhibition zone (DIZ)” value with Staphylococcus aureus [12] stood at 7 mm; with Escherichia coli [13], 6 mm.

On to `O=C(c1ccc(-c2ccc(F)cc2F)cc1)C1C(c2ccc(Cl)cc2)C2CCCN2C12C(=O)Nc1ccccc12` (centres undefined), for which the MIC came out at 12.5 µg/mL (≈ 22.5 µM) against Candida albicans [14], 25 µg/mL (≈ 45 µM) in the assay on Candida tropicalis and 25 µg/mL (≈ 45 µM) with Nakaseomyces glabratus.

In the case of `O=C1OCC2=C1C1(Nc3ccc(Cl)cc3N2)C(=O)Nc2ccccc21` (centres undefined), the IC50 in the assay on A549 is 2900 nM; in the assay with HeLa [15], 5400 nM; in the assay on MCF7, 9500 nM; in the assay on DU-145 it was 1700 nM.

In the case of `O=C1Nc2ccccc2[C@@]1(O)[C@@]1(OCc2ccc(Cl)cc2)C(=O)Nc2ccccc21`, the MIC in the assay with Proteus vulgaris was found to be 0.149 µg/mL (≈ 0.354 µM); with Pseudomonas aeruginosa [9], 0.074 µg/mL (≈ 0.176 µM); in the assay on Escherichia coli [10] it was 0.074 µg/mL (≈ 0.176 µM); in the assay with Staphylococcus aureus [11] it was 0.149 µg/mL (≈ 0.354 µM); with Salmonella sp., 0.074 µg/mL (≈ 0.176 µM).

Consider `COc1cc2c(cc1OC)C(=O)[C@]1(C2)[C@H](c2ccc(C)cc2)[C@H](Cc2c[nH]c3ccccc23)NC12C(=O)Nc1ccccc12` (some centres undefined), for which the IC50 worked out at 2240 nM against Cholinesterase and 14200 nM at Acetylcholinesterase.

`O=C1NC(=S)S[C@]12C1CCCN1[C@@]1(C(=O)Nc3ccccc31)[C@H]2c1ccccc1` (some centres undefined): the “diameter of the inhibition zone (DIZ)” value stood at 24 mm in the assay with Geotrichum candidum, 16 mm in the assay on Aspergillus fumigatus, 25 mm in the assay with Candida albicans [16] and 14 mm in assay [17].

For `Cc1ccc2c(c1)C1(Nc3ccccc3NC3=C1C(=O)OC3)C(=O)N2` (centres undefined), the IC50 was determined as 1500 nM in the assay with A549, 9600 nM in the assay with HeLa [15], 2100 nM with MCF7 and 1300 nM in the assay with DU-145.

For `CCOC1=Nc2ccccc2/C1=C\C(=O)c1ccccc1O`, the zone of inhibition at 25 µg/mL with Aspergillus niger [18] was determined as 10 mm; in the assay with Candida metapsilosis, 11 mm.

Consider `CCOC1=Nc2ccccc2/C1=C\C(=O)c1ccc(Cl)cc1`, for which the “diameter of the inhibition zone (DIZ)” value in the assay on Staphylococcus aureus [12] and in the assay with Escherichia coli [13] was 6 mm throughout.

Consider `CCOC1=Nc2ccccc2/C1=C\C(=O)c1ccc([N+](=O)[O-])cc1`, for which the zone of inhibition at 25 µg/mL in the assay on Aspergillus niger [18] and with Candida metapsilosis was 11 mm throughout.

For the compound `OC(Cn1cncn1)(Cn1cncn1)c1ccc(F)cc1F` [FLUCONAZOLE], the “diameter of the inhibition zone (DIZ)” value stood at 30 mm in the assay with Geotrichum candidum, 25 mm in the assay with Aspergillus fumigatus, 28 mm in the assay with Candida albicans [16] and 24.1 mm in assay [17]. Further, the MIC against Aspergillus niger [19] and in the assay with Aspergillus flavus was 20 µg/mL (≈ 65.3 µM) in each case.

`C[C@H]1COc2c(N3CCN(C)CC3)c(F)cc3c(=O)c(C(=O)O)cn1c23.C[C@H]1COc2c(N3CCN(C)CC3)c(F)cc3c(=O)c(C(=O)O)cn1c23.O` [LEVOFLOXACIN]: the MIC in the assay with Pseudomonas aeruginosa [20] and with Pseudomonas aeruginosa [21] was above 64 µg/mL each time.
